From patent publication US20220088016A1, “CANCER TREATMENT USING MULTI-TARGETED KINASE INHIBITOR IN COMBINATION OF PROTEIN KINASE BIOMARKERS” (ZHEJIANG CROWNMAB BIOTECH CO. LTD., priority 2019, published 2022)

How the values were obtained:
TIE1 = TIE1 (Homo sapiens, UniProt P35590); test: Kinase profiling; type: binding; settings: read-out: % Ctrl @ 1000 nM
403 non-mutant kinases = test: Selectivity Score from kinase profiling
Protocol: Streptavidin-coated magnetic beads were treated with biotinylated small molecule ligands of the kinases for 30 minutes at room temperature to generate affinity resins for kinase assays. The liganded beads were blocked with excess biotin and washed with blocking buffer (SeaBlock (Pierce), 1% BSA, 0.05% Tween 20, 1 mM DTT) to remove unbound ligand and to reduce non-specific phage binding. Binding reactions were assembled by combining kinases, liganded affinity beads, and test compounds in 1× binding buffer (20% SeaBlock, 0.17×PBS, 0.05% Tween 20, 6 mM DTT). Test compounds were prepared as 40× stocks in 100% DMSO and directly diluted into the assay. All reactions were performed in polypropylene 384-well plates in a final volume of 0.04 ml. The assay plates were incubated at room temperature with shaking for 1 hour and the affinity beads were washed with wash buffer (1×PBS, 0.05% Tween 20). The beads were then re-suspended in elution buffer (1×PBS, 0.05% Tween 20, 0.5 μM non-biotinylated affinity ligand) and incubated at room temperature with shaking for 30 minutes. The kinase concentration in the eluates was measured by qPCR.
Selectivity Score or S-score is a quantitative measure of compound selectivity. It is calculated by dividing the number of kinases that compounds bind to by the total number of distinct kinases tested, excluding mutant variants.
S=Number of hits/Number of assays
This value can be calculated using % Ctrl as a potency threshold (below) and provides a quantitative method of describing compound selectivity to facilitate comparison of different compounds.
S(35)=(number of non-mutant kinases with % Ctrl<35)/(number of non-mutant kinases tested)
S(10)=(number of non-mutant kinases with % Ctrl<10)/(number of non-mutant kinases tested)
S(1)=(number of non-mutant kinases with % Ctrl<1)/(number of non-mutant kinases tested)

GAK = GAK (Homo sapiens, UniProt O14976); test: Kinase profiling; type: binding; settings: read-out: % Ctrl @ 1000 nM
CAMK1 = CAMK1 (Homo sapiens, UniProt Q14012); test: Kinase profiling; type: binding; settings: read-out: % Ctrl @ 1000 nM
FER = FER (Homo sapiens, UniProt P16591); test: Kinase profiling; type: binding; settings: read-out: % Ctrl @ 1000 nM
PRKD1 = PRKD1 (Homo sapiens, UniProt Q15139); test: Kinase profiling; type: binding; settings: read-out: % Ctrl @ 1000 nM
PHKG1 = PHKG1 (Homo sapiens, UniProt Q16816); test: Kinase profiling; type: binding; settings: read-out: % Ctrl @ 1000 nM
Sequence of PHKG1 (Q16816 whole entry): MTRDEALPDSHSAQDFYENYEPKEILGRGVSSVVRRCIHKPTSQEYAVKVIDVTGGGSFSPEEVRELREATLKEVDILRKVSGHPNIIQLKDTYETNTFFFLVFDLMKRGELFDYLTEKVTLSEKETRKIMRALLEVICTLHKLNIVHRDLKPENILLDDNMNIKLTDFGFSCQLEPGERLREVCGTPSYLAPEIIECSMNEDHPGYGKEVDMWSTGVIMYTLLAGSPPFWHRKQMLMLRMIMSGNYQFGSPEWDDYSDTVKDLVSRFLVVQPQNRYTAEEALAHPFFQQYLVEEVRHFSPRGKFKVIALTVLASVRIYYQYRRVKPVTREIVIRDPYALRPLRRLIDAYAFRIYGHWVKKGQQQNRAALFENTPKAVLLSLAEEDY

CSF1R = CSF1R (Homo sapiens, UniProt P07333); test: Kinase profiling; type: binding; settings: read-out: % Ctrl @ 1000 nM
CAMK2D = CAMK2D (Homo sapiens, UniProt Q13557); test: Kinase profiling; type: binding; settings: read-out: % Ctrl @ 1000 nM
LTK = LTK (Homo sapiens, UniProt P29376); test: Kinase profiling; type: binding; settings: read-out: % Ctrl @ 1000 nM
HUNK = HUNK (Homo sapiens, UniProt P57058); test: Kinase profiling; type: binding; settings: read-out: % Ctrl @ 1000 nM
PYK2 = PYK2 (Homo sapiens, UniProt Q14289); test: Kinase profiling; type: binding; settings: read-out: % Ctrl @ 1000 nM
EPHA5 = EPHA5 (Homo sapiens, UniProt P54756); test: Kinase profiling; type: binding; settings: read-out: % Ctrl @ 1000 nM
YANK2 = YANK2 (Homo sapiens, UniProt Q9NY57); test: Kinase profiling; type: binding; settings: read-out: % Ctrl @ 1000 nM
Sequence of YANK2 (Q9NY57 whole entry): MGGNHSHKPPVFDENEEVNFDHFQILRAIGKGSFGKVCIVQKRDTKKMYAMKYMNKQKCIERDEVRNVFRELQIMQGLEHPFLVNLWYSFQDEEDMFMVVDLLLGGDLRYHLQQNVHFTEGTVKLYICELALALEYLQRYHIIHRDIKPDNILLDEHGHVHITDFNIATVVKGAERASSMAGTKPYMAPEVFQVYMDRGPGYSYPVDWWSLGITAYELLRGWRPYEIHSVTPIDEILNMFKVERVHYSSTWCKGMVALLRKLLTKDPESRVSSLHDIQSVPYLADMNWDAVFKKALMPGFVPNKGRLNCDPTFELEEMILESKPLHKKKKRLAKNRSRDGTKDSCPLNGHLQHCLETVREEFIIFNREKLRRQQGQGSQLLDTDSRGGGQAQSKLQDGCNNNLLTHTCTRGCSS

DDR2 = DDR2 (Homo sapiens, UniProt Q16832); test: Kinase profiling; type: binding; settings: read-out: % Ctrl @ 1000 nM
DDR1 = DDR1 (Homo sapiens, UniProt Q08345); test: Kinase profiling; type: binding; settings: read-out: % Ctrl @ 1000 nM
DCAMKL3 = DCAMKL3 (Homo sapiens, UniProt Q9C098); test: Kinase profiling; type: binding; settings: read-out: % Ctrl @ 1000 nM
PAK1 = PAK1 (Homo sapiens, UniProt Q13153); test: Kinase profiling; type: binding; settings: read-out: % Ctrl @ 1000 nM
FGR = FGR (Homo sapiens, UniProt P09769); test: Kinase profiling; type: binding; settings: read-out: % Ctrl @ 1000 nM
Sequence of FGR (P09769 whole entry): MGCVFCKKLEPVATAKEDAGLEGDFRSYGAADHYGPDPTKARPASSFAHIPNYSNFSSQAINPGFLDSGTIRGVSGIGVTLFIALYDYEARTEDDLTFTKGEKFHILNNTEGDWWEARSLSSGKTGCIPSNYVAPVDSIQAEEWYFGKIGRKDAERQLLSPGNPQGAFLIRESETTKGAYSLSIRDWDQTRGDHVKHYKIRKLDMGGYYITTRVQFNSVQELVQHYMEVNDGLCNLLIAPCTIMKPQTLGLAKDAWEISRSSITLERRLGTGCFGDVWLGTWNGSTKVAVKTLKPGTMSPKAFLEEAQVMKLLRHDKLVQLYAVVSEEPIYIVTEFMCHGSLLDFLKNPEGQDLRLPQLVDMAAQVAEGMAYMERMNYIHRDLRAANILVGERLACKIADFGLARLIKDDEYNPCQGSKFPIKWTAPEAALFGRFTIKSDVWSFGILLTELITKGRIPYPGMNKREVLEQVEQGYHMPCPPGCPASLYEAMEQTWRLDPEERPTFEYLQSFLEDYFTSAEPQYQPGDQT

PRKCI = PRKCI (Homo sapiens, UniProt P41743); test: Kinase profiling; type: binding; settings: read-out: % Ctrl @ 1000 nM
[1] = molecular target: EGFR (L747-S752del, P753S) (Homo sapiens, UniProt P00533, DEL747-752/P753S); test: Kinase profiling; type: binding; settings: read-out: % Ctrl @ 1000 nM
PIK3CA (E545A) = PIK3CA (E545A) (Homo sapiens, UniProt P42336, E545A); test: Kinase profiling; type: binding; settings: read-out: % Ctrl @ 1000 nM
[2] = molecular target: ABL1 (F317L)-nonphosphorylated (Homo sapiens, UniProt P00519, F317L); test: Kinase profiling; type: binding; settings: read-out: % Ctrl @ 1000 nM
[3] = molecular target: EGFR (L747-E749del, A750P) (Homo sapiens, UniProt P00533, A750P/DEL747-749); test: Kinase profiling; type: binding; settings: read-out: % Ctrl @ 1000 nM
Sequence of EGFR (L747-E749del, A750P) (P00533 with tags, fused parts or gaps DEL747-749/A750P): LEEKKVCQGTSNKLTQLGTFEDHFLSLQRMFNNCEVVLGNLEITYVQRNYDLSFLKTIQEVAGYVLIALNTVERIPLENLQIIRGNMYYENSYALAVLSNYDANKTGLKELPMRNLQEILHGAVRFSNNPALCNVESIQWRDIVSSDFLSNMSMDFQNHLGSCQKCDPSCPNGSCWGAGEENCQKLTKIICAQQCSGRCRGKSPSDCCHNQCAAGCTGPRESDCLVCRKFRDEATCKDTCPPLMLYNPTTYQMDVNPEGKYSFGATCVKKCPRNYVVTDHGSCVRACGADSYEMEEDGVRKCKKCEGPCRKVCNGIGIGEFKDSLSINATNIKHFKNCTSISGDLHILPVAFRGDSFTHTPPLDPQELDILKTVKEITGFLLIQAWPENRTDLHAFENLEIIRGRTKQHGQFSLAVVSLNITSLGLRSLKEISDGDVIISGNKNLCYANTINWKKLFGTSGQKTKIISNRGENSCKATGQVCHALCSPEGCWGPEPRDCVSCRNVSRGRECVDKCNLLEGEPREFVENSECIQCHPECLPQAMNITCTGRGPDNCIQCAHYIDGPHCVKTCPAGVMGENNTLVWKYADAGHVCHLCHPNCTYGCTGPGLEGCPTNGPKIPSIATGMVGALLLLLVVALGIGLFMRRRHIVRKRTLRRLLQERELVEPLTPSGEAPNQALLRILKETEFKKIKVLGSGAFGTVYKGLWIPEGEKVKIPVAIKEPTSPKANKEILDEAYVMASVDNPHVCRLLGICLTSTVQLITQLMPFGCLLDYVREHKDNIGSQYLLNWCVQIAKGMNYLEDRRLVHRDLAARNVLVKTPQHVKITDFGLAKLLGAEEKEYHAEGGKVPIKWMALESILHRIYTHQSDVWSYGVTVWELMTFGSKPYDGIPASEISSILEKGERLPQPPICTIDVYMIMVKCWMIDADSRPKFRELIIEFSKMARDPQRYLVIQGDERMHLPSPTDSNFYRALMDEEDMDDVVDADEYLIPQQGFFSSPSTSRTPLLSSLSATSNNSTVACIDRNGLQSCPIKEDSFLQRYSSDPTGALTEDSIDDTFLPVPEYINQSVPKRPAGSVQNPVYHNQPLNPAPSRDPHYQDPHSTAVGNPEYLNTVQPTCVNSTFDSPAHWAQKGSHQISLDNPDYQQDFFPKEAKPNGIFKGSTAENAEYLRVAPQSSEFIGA

KIT-autoinhibited = KIT-autoinhibited (Homo sapiens, UniProt P10721); test: Kinase profiling; type: binding; settings: read-out: % Ctrl @ 1000 nM
NEK2 = molecular target: T1, NEK2 (Homo sapiens, UniProt P51955); test: Kinase profiling; type: binding; settings: read-out: % Ctrl @ 1000 nM
T1 construct: T7 phage fusion (said for most assays); made in house
T1 sequence (P51955 whole entry, the tested form may be a part): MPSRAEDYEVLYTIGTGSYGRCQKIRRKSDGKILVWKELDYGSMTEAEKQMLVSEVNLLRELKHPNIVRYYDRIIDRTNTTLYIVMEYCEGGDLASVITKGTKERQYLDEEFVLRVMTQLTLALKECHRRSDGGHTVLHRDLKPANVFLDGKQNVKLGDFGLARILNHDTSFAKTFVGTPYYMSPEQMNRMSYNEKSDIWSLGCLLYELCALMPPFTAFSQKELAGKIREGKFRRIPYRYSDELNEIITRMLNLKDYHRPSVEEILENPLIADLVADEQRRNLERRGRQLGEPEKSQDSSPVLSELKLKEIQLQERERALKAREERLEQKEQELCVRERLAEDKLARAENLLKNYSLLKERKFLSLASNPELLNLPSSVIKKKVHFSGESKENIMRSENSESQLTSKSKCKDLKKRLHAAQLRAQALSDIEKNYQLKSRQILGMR

FLT3 (ITD, D835V) = test: Kinase profiling; type: binding
ERBB2 = ERBB2 (Homo sapiens, UniProt P04626); test: Kinase profiling; type: binding; settings: read-out: % Ctrl @ 1000 nM
[4] = molecular target: TYK2 (JH2domain-pseudokinase) (Homo sapiens, UniProt P29597); test: Kinase profiling; type: binding; settings: read-out: % Ctrl @ 1000 nM
Sequence of TYK2 (JH2domain-pseudokinase) (P29597 589-875 limits assumed): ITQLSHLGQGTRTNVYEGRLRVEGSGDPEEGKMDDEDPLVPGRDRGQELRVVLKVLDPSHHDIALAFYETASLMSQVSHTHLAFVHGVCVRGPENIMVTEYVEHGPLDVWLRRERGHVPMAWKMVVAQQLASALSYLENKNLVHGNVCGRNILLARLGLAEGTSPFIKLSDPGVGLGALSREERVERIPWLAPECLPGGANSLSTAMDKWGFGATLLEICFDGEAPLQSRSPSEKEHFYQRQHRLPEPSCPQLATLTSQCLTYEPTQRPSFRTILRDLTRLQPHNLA

ULK3 = ULK3 (Homo sapiens, UniProt Q6PHR2); test: Kinase profiling; type: binding; settings: read-out: % Ctrl @ 1000 nM
HASPIN = HASPIN (Homo sapiens, UniProt Q8TF76); test: Kinase profiling; type: binding; settings: read-out: % Ctrl @ 1000 nM
Sequence of HASPIN (Q8TF76 whole entry): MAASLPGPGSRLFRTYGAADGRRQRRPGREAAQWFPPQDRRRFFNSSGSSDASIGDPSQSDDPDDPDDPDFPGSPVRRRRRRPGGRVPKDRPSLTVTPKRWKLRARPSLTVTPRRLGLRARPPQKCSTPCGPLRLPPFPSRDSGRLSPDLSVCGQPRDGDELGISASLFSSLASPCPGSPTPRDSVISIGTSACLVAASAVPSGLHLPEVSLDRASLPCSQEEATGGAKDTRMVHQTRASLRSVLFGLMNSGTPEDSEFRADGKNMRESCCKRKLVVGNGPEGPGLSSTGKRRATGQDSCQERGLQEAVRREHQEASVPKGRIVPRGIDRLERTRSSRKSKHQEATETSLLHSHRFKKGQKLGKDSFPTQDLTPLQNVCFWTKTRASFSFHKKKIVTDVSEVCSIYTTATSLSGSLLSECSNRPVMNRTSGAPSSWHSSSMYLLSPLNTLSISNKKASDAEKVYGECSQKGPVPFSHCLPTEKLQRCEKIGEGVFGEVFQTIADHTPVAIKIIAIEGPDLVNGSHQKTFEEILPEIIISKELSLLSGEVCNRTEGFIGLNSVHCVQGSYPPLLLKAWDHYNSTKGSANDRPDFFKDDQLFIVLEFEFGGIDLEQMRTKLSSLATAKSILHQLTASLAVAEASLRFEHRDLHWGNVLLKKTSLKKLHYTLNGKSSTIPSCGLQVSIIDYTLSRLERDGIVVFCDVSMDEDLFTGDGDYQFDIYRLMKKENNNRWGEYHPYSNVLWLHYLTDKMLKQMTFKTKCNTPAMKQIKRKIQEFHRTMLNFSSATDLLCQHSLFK

CAMKK2 = CAMKK2 (Homo sapiens, UniProt Q96RR4); test: Kinase profiling; type: binding; settings: read-out: % Ctrl @ 1000 nM
[5] = test system: CD4 (T cell surface marker); test: CD4 IHC test in MC-38 tumor; type: in vivo, mouse; settings: MC-38 tumors; vs vehicle group
Protocol: MC38 tumor tissues were collected at the end of the in vivo efficacy trial. The tumor tissue was then embedded in paraffin. The expression of CD3/CD4/CD8/F4-80 were tested by immunohistochemistry stain.

LIMK2 = LIMK2 (Homo sapiens, UniProt P53671); test: Kinase profiling; type: binding; settings: read-out: % Ctrl @ 1000 nM
Sequence of LIMK2 (P53671 whole entry): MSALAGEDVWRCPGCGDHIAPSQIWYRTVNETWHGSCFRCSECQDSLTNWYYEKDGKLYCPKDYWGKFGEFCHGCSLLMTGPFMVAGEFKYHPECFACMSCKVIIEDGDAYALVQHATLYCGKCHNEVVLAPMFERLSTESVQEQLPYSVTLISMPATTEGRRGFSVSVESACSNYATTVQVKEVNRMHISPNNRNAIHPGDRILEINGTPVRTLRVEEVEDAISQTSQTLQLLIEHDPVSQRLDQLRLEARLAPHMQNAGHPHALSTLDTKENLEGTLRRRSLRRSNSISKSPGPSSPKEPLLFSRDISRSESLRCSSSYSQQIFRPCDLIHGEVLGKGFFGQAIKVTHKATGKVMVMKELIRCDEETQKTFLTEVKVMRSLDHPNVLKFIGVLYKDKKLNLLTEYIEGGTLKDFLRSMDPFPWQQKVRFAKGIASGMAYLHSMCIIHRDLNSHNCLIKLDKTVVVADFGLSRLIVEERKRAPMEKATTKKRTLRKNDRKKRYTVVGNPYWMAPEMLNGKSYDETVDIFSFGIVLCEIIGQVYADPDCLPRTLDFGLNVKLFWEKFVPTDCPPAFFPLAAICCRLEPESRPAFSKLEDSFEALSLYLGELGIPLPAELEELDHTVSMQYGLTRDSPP

TRPM6 = TRPM6 (Homo sapiens, UniProt Q9BX84); test: Kinase profiling; type: binding; settings: read-out: % Ctrl @ 1000 nM
DRAK1 = DRAK1 (Homo sapiens, UniProt Q9UEE5); test: Kinase profiling; type: binding; settings: read-out: % Ctrl @ 1000 nM

In the case of `Cc1cc(Oc2cc(NC(=O)C3CC3)ncn2)ccc1NC(=O)Nc1ccc(Cl)c(C(F)(F)F)c1` [CBT-102], the remaining activity at 1 µM (TIE1) is reported as 20%, the “Selectivity Score S (1)” value (403 non-mutant kinases; % Ctrl<1, 1000 nM) is reported as 0.032 and the “Selectivity Score S (10)” value (403 non-mutant kinases; % Ctrl<10, 1000 nM) is reported as 0.089. For the same compound, the “Selectivity Score S (35)” value (403 non-mutant kinases; % Ctrl<35, 1000 nM) was 0.151, the “Number of Hits, S (1)” value (403 non-mutant kinases; non-mutant kinases with % Ctrl<1, 1000 nM) was 13 and the “Number of Hits, S (10)” value (403 non-mutant kinases; non-mutant kinases with % Ctrl<10, 1000 nM) was 36. The “Number of Hits, S (35)” value (403 non-mutant kinases; non-mutant kinases with % Ctrl<35, 1000 nM) was 61, the remaining activity at 1 µM (GAK) was 100% and the remaining activity at 1 µM (CAMK1) was 74%. The remaining activity at 1 µM (FER) was 73%, the remaining activity at 1 µM (PRKD1) was 100% and the remaining activity at 1 µM (PHKG1) was 96%. For the same compound, the remaining activity at 1 µM (CSF1R) was 0%, the remaining activity at 1 µM (CAMK2D) was 93% and the remaining activity at 1 µM (LTK) was 100%. It also gave a remaining activity at 1 µM (HUNK) of 68%, a remaining activity at 1 µM (PYK2) of 93% and a remaining activity at 1 µM (EPHA5) of 52%. It also gave a remaining activity at 1 µM (YANK2) of 100%, a remaining activity at 1 µM (DDR2) of 1.1% and a remaining activity at 1 µM (DDR1) of 0.3%. It also gave a remaining activity at 1 µM (DCAMKL3) of 100%, a remaining activity at 1 µM (PAK1) of 100% and a remaining activity at 1 µM (FGR) of 41%. The remaining activity at 1 µM (PRKCI) was 74%, the remaining activity at 1 µM [1] was 85% and the remaining activity at 1 µM (PIK3CA (E545A)) was 100%. For the same compound, the remaining activity at 1 µM [2] was 16%, the remaining activity at 1 µM [3] was 80% and the remaining activity at 1 µM (KIT-autoinhibited) was 58%. For the same compound, the remaining activity at 1 µM (NEK2) was 98%, the “% Ctrl @ 1000 nM” value (FLT3 (ITD, D835V)) was 98% and the remaining activity at 1 µM (ERBB2) was 93%. For the same compound, the remaining activity at 1 µM [4] was 100%, the remaining activity at 1 µM (ULK3) was 88% and the remaining activity at 1 µM (HASPIN) was 81%. The remaining activity at 1 µM (CAMKK2) was 92%, the “effect on T cell surface marker CD4 (IHC)” value [5] was “no significant effect” and the remaining activity at 1 µM (LIMK2) was 92%. The remaining activity at 1 µM (TRPM6) was 99% and the remaining activity at 1 µM (DRAK1) was 100%.
